Each structure is given as a SMILES string. Values joined by “and” are separate entries in the source; they are usually repeats but may differ in a detail not shown here. Equal entries are not always repeated. Where two headings read alike, the source gives them in different places.

IC50, remaining activity and MIC data for three molecules are collected here from publication PMC8436411 (ACS Medicinal Chemistry Letters, 2021).

One test concerns the target T1, S. aureus DNA gyrase (Staphylococcus aureus, UniProt P20831).
T1 construct: purchased Inspiralis (Norwich, UK)
Kind of test: DNA gyrase supercoiling inhibition assay (S. aureus). Type of test: biochemical. To be noted: mean of two independent measurements ± SD. Here is the method: We synthesized and biologically evaluated ten new compounds. We determined their inhibitory activity, expressed as IC50 values, on both Gram-positive S. aureus and Gram-negative E. coli bacterial enzymes (DNA gyrase and topo IV), respectively. The in vitro antibacterial activity, expressed as minimum inhibitory concentration (MIC), was determined against broad spectrum of bacteria, including Gram-positive (Staphylococcus aureus, methicillin-resistant Staphylococcus aureus, Streptococcus agalactiae, and Enterococcus faecalis) and Gram-negative strains (Escherichia coli, Salmonella alachua, Pseudomonas aeruginosa, and Klebsiella pneumoniae), enriched with various MRSA strains resistant to various antibiotics as well as E. coli strains with increased membrane permeability and lack of efflux pump, as well. Furthermore, the selectivity of compounds for bacterial enzyme compared to the orthologous human topoisomerase IIα was also considered. The in vitro safety profile was determined by cytotoxicity assessment on human umbilical vein endothelial cell lines (HUVEC) and HepG2 liver cancer cell lines.
Determination of DNA gyrase and topoisomerase IV inhibitory activities
To determine the IC50 values of the compounds, a Gyrase Supercoiling High Throughput Plate assay kit and a TopoIV Relaxation High Throughput Plate assay kit, commercially available from Inspiralis (Norwich, UK), were used for S. aureus and E. coli. The assays were performed on black streptavidin-coated 96-well microtiter plates (Thermo Scientific Pierce, Norwich, UK) and the wells were first […]
BSA and 0.05% [v/v] Tween-20). Biotinylated oligonucleotide diluted with the wash buffer was then immobilized in each well and the excess was removed with the wash buffer. 1.5 U of the enzyme S. aureus or E. coli DNA gyrase (topoIV) was incubated together with 0.75 μg of relaxed (supercoiled) pNO1 plasmid as substrate in the presence of 3 μl inhibitor solution in 10% DMSO and 0.008% Tween-20 at 37°C for 30 min in a final reaction volume of 30 μl in the assay buffer (S. aureus DNA gyrase: 40 mM HEPES.KOH (pH 7.6), 10 mM magnesium acetate, 10 mM DTT, 2 mM ATP, 500 mM potassium glutamate and 0.05 mg/ml albumin; E. coli DNA gyrase: 35 mM Tris.HCl (pH 7.5), 24 […]
mg/ml albumin; S. aureus topo IV: 50 mM Tris.HCl (7.5), 5 mM MgCl 2, 5 mM DTT, 1.5 mM ATP, 350 mM potassium glutamate and 0.05 mg/ml albumin; E. coli topo IV: 40 mM HEPES.KOH (pH 7.6), 100 mM potassium glutamate, 10 mM magnesium acetate, 10 mM DTT, 1 mM ATP and 50 μg/ml albumin). The reaction was stopped by adding the TF buffer (50 mM NaOAc (pH 4.7), 50 mM NaCl and 50 mM MgCl2) to allow triplex formation (biotin oligonucleotide plasmid) for another 30 min. Finally, the unbound plasmid was washed off using the TF buffer and the Promega Diamond dye was added to T10 buffer (10 mM Tris-HCl (pH 8.0), 1 mM EDTA) solution. After 15 min the solution […]
Two inhibitor concentrations of 100 and 1 μM were used for pre-screening. The IC 50 values […]
(IC50) was calculated by nonlinear regression-based fitting of the inhibition curves using the log [inhibitor] versus response-variable slope (four parameters) – symmetrical equation, in GraphPad Prism 6.0 software (GraphPad Software, CA, USA). The IC50 value represents the average of two independent measurements.
The minimum inhibitory concentrations (MICs) were determined using the broth micro-dilution method in 96-well plate format according to the Clinical and Laboratory Standards Institute

For a further test, the target named is Human topoisomerase IIα (Homo sapiens, UniProt P11388). Briefly: Human topoisomerase IIα residual activity. The settings on record: residual activity at 10 μM compound; mean ± SD, two independent experiments; read-out: Human topoisomerase IIα (%RA). In kind it is biochemical.
Another test concerns E. coli (ATCC 25922). Kind of test: microbe, parasite or virus in culture. The settings on record: Escherichia coli, ATCC25922, read-out: MIC E. coli (ATCC 25922). On the procedure: (§1) The in vitro antibacterial activity, expressed as minimum inhibitory concentration (MIC), was determined against broad spectrum of bacteria, including Gram-positive (Staphylococcus aureus, methicillin-resistant Staphylococcus aureus, Streptococcus agalactiae, and Enterococcus faecalis) and Gram-negative strains (Escherichia coli, Salmonella alachua, Pseudomonas aeruginosa, and Klebsiella pneumoniae), enriched with various MRSA strains resistant to various antibiotics as well as E. coli strains with increased membrane permeability and lack of efflux pump, as well. […]
(§2) The minimum inhibitory concentrations (MICs) were determined using the broth micro-dilution method in 96-well plate format according to the Clinical and Laboratory Standards Institute […]
(§3) guidelines8 and European Committee on Antimicrobial Susceptibility Testing recommendations9. The bacterial suspension of the specific bacterial strain equivalent to the 0.5 McFarland turbidity standard was diluted with cation-adapted Mueller Hinton broth with TES (Thermo Fisher Scientific) to obtain a […]
(§4) The compounds dissolved in DMSO and inoculum were mixed together and incubated for 20 h at 35 °C.

The next test deals with E. coli D22. Briefly: microbe, parasite or virus in culture. The settings on record: Escherichia coli. On the procedure:
as §1, §2, §3, §4

The test system of test [1] is E. coli N43 (CGSC no. 5583). Briefly: microbe, parasite or virus in culture. The settings on record: Escherichia coli. Here is the method:
as §1, §2, §3, §4

Test [2] concerns Enterococcus faecalis DRK 057 (ATCC 29212). Briefly: microbe, parasite or virus in culture. Here is the method: as §1, §2, §3, §4
The subject of the next test is Klebsiella pneumoniae. Briefly: microbe, parasite or virus in culture. Here is the method:
as §1, §2, §3, §4

The subject of another test is MRSA (QA-11.7). Briefly: microbe, parasite or virus in culture. The settings on record: Staphylococcus aureus, read-out: MIC MRSA (QA-11.7). Here is the method: as §1, §2, §3, §4
The subject of another test is MRSA (QA-12.1). Briefly: microbe, parasite or virus in culture. To be noted: Staphylococcus aureus, read-out: MIC MRSA (QA-12.1). On the procedure:
as §1, §2, §3, §4

Test [3] relates to Pseudomonas aeruginosa RDK 184 (DSM 939). Briefly: microbe, parasite or virus in culture. On the procedure:
as §1, §2, §3, §4

Another test relates to S. aureus (ATCC 29213). Kind of test: microbe, parasite or virus in culture. To be noted: Staphylococcus aureus, ATCC29213, read-out: MIC S. aureus (ATCC 29213). On the procedure:
as §1, §2, §3, §4

Test [4] has as its system Salmonella alachua RDK 030c (QA-1482/04). Kind of test: microbe, parasite or virus in culture. On the procedure:
as §1, §2, §3, §4

For test [5], the system named is Streptococcus agalactiae RDK 047 (QA-990/02). Kind of test: microbe, parasite or virus in culture. Here is the method: as §1, §2, §3, §4
Setting [6] is: read-out: MIC E. coli N43 (CGSC no. 5583).
The mark [7] stands for this setting: read-out: MIC E. coli N43 (CGSC# 5583).
Where [8] appears, read: ATCC29212, read-out: MIC E. faecalis DRK 057 (ATCC 29212).
The mark [9] stands for this setting: ATCC29212, read-out: MIC Enterococcus faecalis DRK 057 (ATCC 29212).
The mark [10] stands for this setting: read-out: MIC Klebsiella pneumoniae.
Setting [11] is: DSM939, read-out: MIC P. aeruginosa RDK 184 (DSM 939).
Where [12] appears, read: DSM939, read-out: MIC Pseudomonas aeruginosa RDK 184 (DSM 939).
Setting [13] is: read-out: MIC S. alachua RDK 030c (QA-1482/04).
Setting [14] is: read-out: MIC Salmonella alachua RDK 030c (QA-1482/04).
Where [15] appears, read: read-out: MIC S. agalactiae RDK 047 (QA-990/02).
The mark [16] stands for this setting: read-out: MIC Streptococcus agalactiae RDK 047 (QA-990/02).

Human topoisomerase IIα, sequence (P11388 whole entry): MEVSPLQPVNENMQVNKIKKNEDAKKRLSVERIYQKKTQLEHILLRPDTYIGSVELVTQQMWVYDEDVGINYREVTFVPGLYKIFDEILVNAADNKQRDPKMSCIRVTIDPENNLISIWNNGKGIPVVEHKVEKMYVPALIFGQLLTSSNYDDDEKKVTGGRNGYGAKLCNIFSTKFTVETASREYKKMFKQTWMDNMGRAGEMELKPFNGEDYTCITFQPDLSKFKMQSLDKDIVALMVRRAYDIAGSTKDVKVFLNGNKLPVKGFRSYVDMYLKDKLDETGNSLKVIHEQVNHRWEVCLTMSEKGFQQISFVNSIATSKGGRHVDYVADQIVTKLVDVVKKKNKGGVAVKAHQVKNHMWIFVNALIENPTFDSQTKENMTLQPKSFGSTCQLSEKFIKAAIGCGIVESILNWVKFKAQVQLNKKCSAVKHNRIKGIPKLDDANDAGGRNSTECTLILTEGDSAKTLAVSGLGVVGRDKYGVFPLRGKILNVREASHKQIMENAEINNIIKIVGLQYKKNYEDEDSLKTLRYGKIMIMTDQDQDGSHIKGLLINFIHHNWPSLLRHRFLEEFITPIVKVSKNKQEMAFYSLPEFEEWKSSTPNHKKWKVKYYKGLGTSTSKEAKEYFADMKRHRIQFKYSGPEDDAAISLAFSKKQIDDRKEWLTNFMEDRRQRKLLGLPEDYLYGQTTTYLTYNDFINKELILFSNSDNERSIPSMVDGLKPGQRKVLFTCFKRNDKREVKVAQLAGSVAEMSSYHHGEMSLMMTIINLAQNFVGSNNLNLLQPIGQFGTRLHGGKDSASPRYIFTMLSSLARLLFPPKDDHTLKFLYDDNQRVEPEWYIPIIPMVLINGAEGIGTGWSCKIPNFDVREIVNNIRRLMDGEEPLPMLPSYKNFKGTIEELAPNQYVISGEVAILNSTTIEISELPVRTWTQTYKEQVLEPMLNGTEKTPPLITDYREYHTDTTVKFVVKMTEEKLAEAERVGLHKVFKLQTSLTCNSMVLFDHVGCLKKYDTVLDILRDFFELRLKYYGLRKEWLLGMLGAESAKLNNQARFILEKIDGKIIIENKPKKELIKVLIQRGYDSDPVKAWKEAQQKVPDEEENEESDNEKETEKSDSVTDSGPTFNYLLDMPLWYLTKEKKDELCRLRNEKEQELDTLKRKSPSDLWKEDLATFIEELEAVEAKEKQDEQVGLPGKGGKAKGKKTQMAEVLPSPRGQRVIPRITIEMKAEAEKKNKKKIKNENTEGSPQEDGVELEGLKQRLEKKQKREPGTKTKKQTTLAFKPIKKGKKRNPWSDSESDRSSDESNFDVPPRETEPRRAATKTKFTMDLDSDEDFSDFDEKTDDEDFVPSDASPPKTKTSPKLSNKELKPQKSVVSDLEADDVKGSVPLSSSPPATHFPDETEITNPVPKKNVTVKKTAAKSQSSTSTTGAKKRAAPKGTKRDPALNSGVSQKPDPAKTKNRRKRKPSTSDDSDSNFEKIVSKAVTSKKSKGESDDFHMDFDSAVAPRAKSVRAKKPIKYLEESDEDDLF
T1 sequence (P20831 whole entry, looked up): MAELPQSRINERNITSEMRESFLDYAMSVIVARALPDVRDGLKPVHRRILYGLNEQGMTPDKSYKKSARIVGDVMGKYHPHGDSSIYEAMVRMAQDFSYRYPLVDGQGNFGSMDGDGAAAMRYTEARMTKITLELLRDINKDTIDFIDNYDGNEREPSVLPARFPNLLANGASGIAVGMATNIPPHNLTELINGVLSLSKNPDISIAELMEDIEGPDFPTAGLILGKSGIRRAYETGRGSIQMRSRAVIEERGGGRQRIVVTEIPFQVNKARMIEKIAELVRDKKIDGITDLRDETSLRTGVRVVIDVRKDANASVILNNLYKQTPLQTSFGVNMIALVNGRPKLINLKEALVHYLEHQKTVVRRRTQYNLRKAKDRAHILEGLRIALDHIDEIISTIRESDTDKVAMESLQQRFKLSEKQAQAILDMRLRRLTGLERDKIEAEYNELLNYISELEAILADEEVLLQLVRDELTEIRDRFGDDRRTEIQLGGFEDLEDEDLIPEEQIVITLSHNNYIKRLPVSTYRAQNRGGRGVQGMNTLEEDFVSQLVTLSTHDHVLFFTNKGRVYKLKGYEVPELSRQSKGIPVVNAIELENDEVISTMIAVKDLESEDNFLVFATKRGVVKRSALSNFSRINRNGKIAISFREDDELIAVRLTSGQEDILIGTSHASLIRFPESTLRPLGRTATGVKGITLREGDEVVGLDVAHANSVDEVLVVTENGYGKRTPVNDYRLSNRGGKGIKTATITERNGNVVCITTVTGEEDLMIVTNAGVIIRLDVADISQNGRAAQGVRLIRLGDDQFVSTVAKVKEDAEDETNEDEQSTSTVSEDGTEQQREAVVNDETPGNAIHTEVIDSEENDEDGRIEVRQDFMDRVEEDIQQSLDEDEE

For the molecule `COc1ccc2nccc(CCN3CCC(NCc4cc(F)c(Br)cc4F)CC3)c2n1` [Compound 9], the IC50 (in general, the point on the concentration scale where inhibition reaches its midpoint) against S. aureus DNA gyrase was determined as 9 ± 1 nM. The remaining activity at 10 µM at Human topoisomerase IIα amounted to 98.83 ± 0.11%. Besides, the MIC in the test with E. coli (ATCC 25922) is 2.04 µM and 1 µg/mL; in the test with E. coli D22 (D22, read-out: MIC E. coli D2), 0.509 µM; with E. coli D22 (D22, read-out: MIC E. coli D22) it was 0.25 µg/mL; in test [1] (setting [6]), 0.062 µg/mL; in [1] (setting [7]), 0.126 µM; in test [2] (setting [8]), 1.02 µM. For the same molecule, the MIC in [2] (setting [9]) was 0.5 µg/mL; in the test with Klebsiella pneumoniae (read-out: MIC K. pneumoniae), 130 µM; in the test with Klebsiella pneumoniae (setting [10]), 64 µg/mL; in the test with MRSA (QA-11.7) it was 0.033 µM and 0.016 µg/mL; in the test with MRSA (QA-12.1) it was 0.033 µM and 0.016 µg/mL; in test [3] (setting [11]), 260 µM. Moreover, the MIC in [3] (setting [12]) was 128 µg/mL; in the test on S. aureus (ATCC 29213) it was 0.016 µM and 0.008 µg/mL; in [4] (setting [13]), 32.6 µM; in test [4] (setting [14]), 16 µg/mL; in test [5] (setting [15]), 0.509 µM; in test [5] (setting [16]), 0.25 µg/mL.

On to `COc1ccc2nccc(CCN3CCC(NCc4ccc(Cl)c(F)c4)CC3)c2n1` [Compound 4], for which the IC50 against S. aureus DNA gyrase was found to be 6 ± 1 nM. Besides, the remaining activity at 10 µM on Human topoisomerase IIα turned out to be 99.2 ± 0.52%. The MIC is 4.66 µM and 2 µg/mL in the test with E. coli (ATCC 25922); 0.583 µM in the test on E. coli D22 (D22, read-out: MIC E. coli D2); 0.25 µg/mL with E. coli D22 (D22, read-out: MIC E. coli D22); 0.062 µg/mL in [1] (setting [6]); 0.145 µM in [1] (setting [7]); 4.66 µM in test [2] (setting [8]). Moreover, the MIC was 2 µg/mL in test [2] (setting [9]); 74.6 µM with Klebsiella pneumoniae (read-out: MIC K. pneumoniae); 32 µg/mL in the test on Klebsiella pneumoniae (setting [10]); 0.072 µM and 0.031 µg/mL with MRSA (QA-11.7); 0.072 µM and 0.031 µg/mL in the test on MRSA (QA-12.1); 149 µM in test [3] (setting [11]). Further, the MIC was 64 µg/mL in test [3] (setting [12]); 0.072 µM and 0.031 µg/mL in the test with S. aureus (ATCC 29213); 18.7 µM in test [4] (setting [13]); 8 µg/mL in [4] (setting [14]); 2.33 µM in [5] (setting [15]); 1 µg/mL in [5] (setting [16]).

In turn, `COc1ccc2nccc(CCN3CCC(NCc4cc(F)c(Cl)c(F)c4)CC3)c2n1` [Compound 7] returned an IC50 on S. aureus DNA gyrase of 14 ± 2 nM. Also, on Human topoisomerase IIα, the remaining activity at 10 µM stood at 99.43 ± 0.57%. Besides, the MIC in the test with E. coli (ATCC 25922) was 1.12 µM and 0.5 µg/mL; with E. coli D22 (D22, read-out: MIC E. coli D2) it was 0.069 µM; in the test on E. coli D22 (D22, read-out: MIC E. coli D22), 0.031 µg/mL; in test [1] (setting [6]) it was 0.062 µg/mL; in test [1] (setting [7]) it was 0.139 µM; in test [2] (setting [8]), 1.12 µM. For the same molecule, the MIC was 0.5 µg/mL in test [2] (setting [9]); 17.9 µM in the test with Klebsiella pneumoniae (read-out: MIC K. pneumoniae); 8 µg/mL in the test on Klebsiella pneumoniae (setting [10]); 0.069 µM and 0.031 µg/mL in the test with MRSA (QA-11.7); 0.069 µM and 0.031 µg/mL in the test with MRSA (QA-12.1); 35.8 µM in [3] (setting [11]). For the same molecule, the MIC was 16 µg/mL in [3] (setting [12]); 0.018 µM and 0.008 µg/mL in the test on S. aureus (ATCC 29213); 4.47 µM in test [4] (setting [13]); 2 µg/mL in test [4] (setting [14]); 1.12 µM in test [5] (setting [15]); 0.5 µg/mL in [5] (setting [16]).
